How the values were obtained:
human fibroblasts [1] = assay: Focal adhesion formation and spreading in human fibroblasts; assay type: cell-based; conditions: PF573228 treatment
Text: To substantiate the importance of these findings in human tissues, we examined FAK pathways in vitro in human fibroblasts. Following the application of strain, FAK was activated within five minutes and sustained during the static strain period (FIG. 3a-b). ERK was phosphorylated after ten minutes and its activation was critically dependent on FAK, thus recapitulating the FAK-ERK mechanotransduction axis observed in vivo. Small molecule inhibition of FAK (PF573228) was used to investigate mechanically-regulated fibroblast function during wound repair. […] Additionally, cell motility (FIG. 3c) and contraction/α-SMA expression (FIG. 3d-e) were all decreased with FAK inhibition.
Fibroblast harvest. We isolated primary dermal mouse fibroblasts after overnight incubation in trypsin (Gibco/Invitrogen, Carlsbad, Calif.) followed by 1 mg mL^−1 Liberase TL (Roche, Indianapolis, Ind.). We obtained human fibroblasts from fresh tissue specimens following IRB-approved protocols at Oregon Health and Sciences University. We incubated specimens overnight in 5 mg mL^−1 dispase (Roche) followed by 0.5 mg mL^−1 collagenase type I (Roche) and 0.2 mg mL^−1 trypsin. […]
Microscopy and immunohistochemistry. […] We processed images for publication using Adobe Photoshop CS3 (Adobe Systems Incorporated, San Jose, Calif.) and two blinded investigators performed image quantification using ImageJ (NIH, Bethesda, Md.).

human fibroblasts [2] = assay: Scratch migration assay (fibroblast motility); assay type: cell-based; conditions: FIG. 3c
Method: (§1) Fibroblast harvest. We isolated primary dermal mouse fibroblasts after overnight incubation in trypsin (Gibco/Invitrogen, Carlsbad, Calif.) followed by 1 mg mL^−1 Liberase TL (Roche, Indianapolis, Ind.). We obtained human fibroblasts from fresh tissue specimens following IRB-approved protocols at Oregon Health and Sciences University. We incubated specimens overnight in 5 mg mL^−1 dispase (Roche) followed by 0.5 mg mL^−1 collagenase type I (Roche) and 0.2 mg mL^−1 trypsin. We used human cells from passages four to eight.
In vitro wound healing. We assessed fibroblast motility using a scratch migration assay, Aarabi, et al. FASEB J 21, 3250-3261 (2007).

human fibroblasts [3] = assay: Fibroblast-populated 3D-collagen lattices (contraction, α-SMA expression); assay type: cell-based; conditions: FIG. 3d-e
Method: as §1
Fibroblast-populated collagen lattices. We performed fibroblast contraction studies as previously published, Ehrlich, Methods Mol Med 78, 277-291 (2003).
Microscopy and immunohistochemistry. We incubated paraformaldehyde-fixed cells with primary antibody (pFAK-Y397 or FAK 1:200, BD Biosciences, San Jose, Calif.) followed by AlexaFluor488-conjugated secondary antibody (Molecular Probes/Invitrogen). We performed cytoskeletal staining with phalloidin-AF488 or Cy3-conjugated antibody against α-SMA (Sigma-Aldrich). We performed H&E, picrosirius red and trichrome staining (Sigma-Aldrich) on paraffin-embedded sections. […] We processed images for publication using Adobe Photoshop CS3 (Adobe Systems Incorporated, San Jose, Calif.) and two blinded investigators performed image quantification using ImageJ (NIH, Bethesda, Md.).

[4] = system: cutaneous wounds in the HTS model; assay: Murine HTS model with daily intradermal injections; assay type: in vivo
Method: Murine HTS model. We used a murine HTS model as previously published by our group, Aarabi, et al., supra.
Microscopy and immunohistochemistry. We incubated paraformaldehyde-fixed cells with primary antibody (pFAK-Y397 or FAK 1:200, BD Biosciences, San Jose, Calif.) followed by AlexaFluor488-conjugated secondary antibody (Molecular Probes/Invitrogen). We performed cytoskeletal staining with phalloidin-AF488 or Cy3-conjugated antibody against α-SMA (Sigma-Aldrich). We performed H&E, picrosirius red and trichrome staining (Sigma-Aldrich) on paraffin-embedded sections. We used primary antibodies against FAK, MCP-1, F4/80, Ki67, and α-SMA. Immunostaining was developed with VIP, NovaRed or diaminobenzidine (Vector Laboratories, Burlingame, Calif.), or secondary fluorescent antibodies AF488 or AF594. We performed apoptotic staining using the In Situ Cell Death Detection Kit (Roche). We purchased all antibodies from Abcam Inc. (Cambridge, Mass.) unless otherwise noted. We processed images for publication using Adobe Photoshop CS3 (Adobe Systems Incorporated, San Jose, Calif.) and two blinded investigators performed image quantification using ImageJ (NIH, Bethesda, Md.).
Gene expression. We performed qPCR as previously published. We used Taqman Gene Expression Assays (Applied Biosystems, Foster City, Calif.) for in vitro qPCR.
Immunoblotting. We performed immunoblotting as previously described. We used the following antibodies: FAK (BD Biosciences), p-FAK Y397, p-FAK S732, p-ERK T202/Y204 and ERK, p-Akt S473 and Akt (Cell Signaling Technology, Inc., Danvers, Mass.), p-p38 Y182 and p38, p-JNK T183/Y185 and JNK, MCP-1 and β-actin. We obtained all antibodies from Abcam Inc. unless otherwise noted.
Intradermal injections. We administered intradermal injections (300 μL) of DMSO, 15 μM PF573228, or 150 μM PF573228 to unwounded murine skin or unloaded incisions. For HTS model experiments, we injected 15 μM PF573228 or recombinant mouse Mcp-1 (1 μg mL^−1, R&D Systems Inc.) daily between days 4 and 14 post-injury.

Compound	formation of focal adhesions (human fibroblasts [1])	spreading in human fibroblasts (human fibroblasts [1])	cell motility (human fibroblasts [2])	contraction/α-SMA expression (human fibroblasts [3])	scar formation in vivo ([4]; 15 μM PF573228 intradermal daily, days 4 to 14 post-injury, FIG. 4a)	MCP-1-associated pathways ([4]; HTS model scars)	mechanical activation of ERK ([4]; HTS model scars)	scar matrix density ([4]; post-injury day ten scars)	attenuation of epithelial proliferation ([4]; post-injury day ten scars, p<0.001)	attenuation of epithelial thickness ([4]; post-injury day ten scars, p=0.004)	attenuation of dermal proliferation ([4]; post-injury day ten scars, p=0.01)	fibrotic phenotype in FAK-deficient wounds ([4]; FAK KO mice, intradermal Mcp-1 1 μg mL^−1 daily, FIG. 2c-f)
CS(=O)(=O)c1cccc(CNc2nc(Nc3ccc4c(c3)CCC(=O)N4)ncc2C(F)(F)F)c1 [PF573228]	effectively inhibited	impaired	decreased	decreased	significantly reduced	blocked	significantly decreased	attenuated	57%	35%	28%	–
Mcp-1: recombinant mouse Mcp-1 (monocyte chemoattractant protein-1/CCL2), R&D Systems Inc.	–	–	–	–	–	–	–	–	–	–	–	restored the fibrotic phenotype

From patent US9655967B2, “Inhibition of focal adhesion kinase for control of scar tissue formation” (The Board of Trustees of the Leland Stanford Junior …, priority 2011, dated 2017)
